Experimental findings from patent publication US7371888B2, “α-(Trifluoromethyl-substituted aryloxy, arylamino, arylthio or arylmethyl)-trifluoromethyl-substituted phenylacetic acids and derivatives as antidiabetic agents” (Metabolex, Inc., priority 2004, dated 2008) are described below.

This experiment relates to C57BL/6J ob/ob mice. Briefly: Anti-diabetic activity in the C57BL/6j ob/ob mice model (plasma glucose lowering, insulin level). Type of experiment: in vivo. The conditions noted are these: male C57BL/6J ob/ob mice, orally by gavage once a day for 1-4 days; for Insulin Level compared with vehicle: drug-treated vs vehicle-treated; for minimal effective dose: Mus musculus, po, glucose lowering, plasma glucose 6 hours after each dose, read-out: Potency. As for the experimental part:
The anti-diabetic activities of the compounds were evaluated in the C57BL/6j ob/ob Mice model. Male, 7-9 weeks old, C57BL/6J ob/ob mice were purchased from The Jackson Laboratory (Bar Harbor, Me., USA). Animals were housed (4-5 mice/cage) under standard laboratory conditions at 22±3° C. temperature and 50±20% relative humidity, and were maintained on a diet of Purina rodent chow and water ad libitum. Prior to treatment, blood was collected from the tail vein of each animal. Mice that had non-fasting plasma glucose levels between 250 and 500 mg/dl were used. Each treatment group consisted of 8-10 mice that were distributed so that the mean glucose levels were equivalent in each group at the start of the study. Mice were dosed orally by gavage once a day for 1-4 days with vehicle and one or more dose of test compound at a dose ranging from 5 to 125 mg/kg. Compounds were delivered in a liquid formulation containing 5% (v/v) dimethyl sulfoxide (DMSO), 1% (v/v) Tween 80® and 0.9% (w/v) methylcellulose. The gavage volume was 10 ml/kg. Blood samples were taken at 6 hours after the each dose and analyzed for plasma glucose. Food intake and body weight were measured daily. Plasma glucose concentrations were determined calorimetrically using a commercial glucose oxidase method (Sigma Chemical Co, St. Louis, Mo., USA). Significant difference between groups (comparing drug-treated to vehicle-treated) was evaluated using the Student unpaired t-test. Table 1 provides the relative potency of some selected compounds of the invention.

On to `O=C(O)C(Oc1ccc(C(F)(F)F)cc1)c1cccc(C(F)(F)F)c1` (centres unmarked) [Compound 39, (4-Trifluoromethyl-phenoxy)-(3-trifluoromethyl-phenyl)-acetic acid], for which the “Insulin Level compared with vehicle” value is listed as “Lower”.

For `CC(=O)NCCOC(=O)C(Oc1cccc(C(F)(F)F)c1)c1ccc(C(F)(F)F)cc1` (centres unmarked) [Compound 142], the minimal effective dose was not above 125 mg/kg and the “Insulin Level compared with vehicle” value is recorded as “Lower”. With `O=C(O)C(Oc1ccc(C(F)(F)F)cc1)c1cccc(C(F)(F)F)c1` (single isomer, unassigned; (-)) [(−)-39, (4-trifluoromethyl-phenoxy)-(3-trifluoromethyl-phenyl)-acetic acid], the “Insulin Level compared with vehicle” value is “Lower”. For the compound `CC(=O)NCCOC(=O)C(Oc1ccc(C(F)(F)F)cc1)c1cccc(C(F)(F)F)c1` (centres unmarked) [Compound 136, (4-trifluoromethyl-phenoxy)-(3-trifluoromethyl-phenyl)-acetic acid 2-acetylamino-ethyl ester], the minimal effective dose is not above 125 mg/kg and the “Insulin Level compared with vehicle” value is recorded as “Lower”. As to `CC(=O)NCCOC(=O)C(Oc1cccc(C(F)(F)F)c1)c1cccc(C(F)(F)F)c1` (centres unmarked) [Compound 144], the minimal effective dose was not above 125 mg/kg and the “Insulin Level compared with vehicle” value is listed as “Lower”.

As for `CC(Oc1ccc(C(F)(F)F)cc1)(C(=O)O)c1ccc(C(F)(F)F)cc1` (centres unmarked) [Compound 121, 2-(4-Trifluoromethyl-phenoxy)-2-(4-trifluoromethyl-phenyl)-propionic acid], the minimal effective dose is not above 125 mg/kg and the “Insulin Level compared with vehicle” value is listed as “Lower”. For `CC(=O)NCCOC(=O)C(Oc1ccc(C(F)(F)F)cc1)c1ccc(C(F)(F)F)cc1` (centres unmarked) [Compound 145], the minimal effective dose is not above 125 mg/kg and the “Insulin Level compared with vehicle” value is “Lower”. As for `O=C(O)C(Oc1ccc(C(F)(F)F)cc1)c1cccc(C(F)(F)F)c1` (single isomer, unassigned; (+)) [(+)-39, (4-trifluoromethyl-phenoxy)-(3-trifluoromethyl-phenyl)-acetic acid], the “Insulin Level compared with vehicle” value is “Lower”. As to `CC(=O)NCCOC(=O)C(Oc1cccc(C(F)(F)F)c1)c1ccccc1C(F)(F)F` (centres unmarked) [Compound 147], the minimal effective dose was more than 125 mg/kg and the “Insulin Level compared with vehicle” value is given as “Lower”.

For the compound `O=C(O)C(Oc1ccc(C(F)(F)F)cn1)c1cccc(C(F)(F)F)c1` (centres unmarked) [Compound 100, (3-trifluoromethyl-phenyl)-(5-trifluoromethyl-pyridin-2-yloxy)-acetic acid], the minimal effective dose was not above 125 mg/kg and the “Insulin Level compared with vehicle” value is reported as “Lower”. With `OCC(Oc1ccc(C(F)(F)F)cc1Cl)c1ccc(C(F)(F)F)cc1` (centres unmarked) [Compound 128], the minimal effective dose is not above 125 mg/kg and the “Insulin Level compared with vehicle” value is on record as “Lower”. On to `CC(=O)NCCOC(=O)C(Oc1ccccc1C(F)(F)F)c1ccc(C(F)(F)F)cc1` (centres unmarked) [Compound 146], for which the minimal effective dose was more than 125 mg/kg and the “Insulin Level compared with vehicle” value is “Lower”. Turning to `O=C(O)C(Oc1cccc(C(F)(F)F)c1)c1ccc(C(F)(F)F)cc1` (centres unmarked) [Compound 86, (3-trifluoromethyl-phenoxy)-(4-trifluoromethyl-phenyl)-acetic acid], the minimal effective dose is not above 125 mg/kg and the “Insulin Level compared with vehicle” value is listed as “Lower”.

For the compound `CC(=O)NCCOC(=O)C(Oc1cc(C(F)(F)F)cc(C(F)(F)F)c1)c1ccc(C(F)(F)F)cc1` (centres unmarked) [Compound 143], the minimal effective dose was not above 125 mg/kg and the “Insulin Level compared with vehicle” value is “Lower”.

`O=C(O)C(Oc1ccc(C(F)(F)F)cc1Cl)c1cccc(C(F)(F)F)c1` (centres unmarked) [Compound 85, (2-Chloro-4-trifluoromethyl-phenoxy)-(3-trifluoromethyl-phenyl)-acetic acid]: the minimal effective dose was not above 125 mg/kg and the “Insulin Level compared with vehicle” value was “Lower”. As for `CC(Oc1ccc(C(F)(F)F)cc1)(C(=O)O)c1cccc(C(F)(F)F)c1` (centres unmarked) [Compound 120, 2-(4-trifluoromethyl-phenoxy)-2-(3-trifluoromethyl-phenyl)-propionic acid], the minimal effective dose was not above 125 mg/kg and the “Insulin Level compared with vehicle” value is reported as “Lower”.

`O=C(O)C(Oc1ccc(C(F)(F)F)cc1)c1ccc(C(F)(F)F)cc1` (centres unmarked) [Compound 83, (4-Trifluoromethyl-phenoxy)-(4-trifluoromethyl-phenyl)-acetic acid]: the minimal effective dose is not above 125 mg/kg and the “Insulin Level compared with vehicle” value was “Lower”.

On to `O=C(O)C(Oc1cc(C(F)(F)F)cc(C(F)(F)F)c1)c1ccc(C(F)(F)F)cc1` (centres unmarked) [Compound 81], for which the minimal effective dose is not above 125 mg/kg and the “Insulin Level compared with vehicle” value is listed as “Lower”. The matching figures for `O=C(O)C(Oc1ccc(C(F)(F)F)cc1Cl)c1ccc(C(F)(F)F)cc1` (centres unmarked) [Compound 89, (2-Chloro-4-trifluoromethyl-phenoxy)-(4-trifluoromethyl-phenyl)-acetic acid]: not above 125 mg/kg and “Lower”.
